# Experimental data from patent US11103520B2, “Analogs of N-acetlyglucosamine and uses thereof” (THE REGENTS OF THE UNIVERSITY OF CALIFORNIA, priority 2014, dated 2021).
# Entries after “also recorded” stand apart in the source; their conditions may differ.
# How the values were obtained:
# human T cells [1] = experiment: N-glycan branching (L-PHA) in human T cells; type: cell-based; conditions: PMA/Ionomycin stimulation, FIG. 9 and FIG. 10
# Text: Relative L-PHA (%) in human T cells is plotted as a function of PMA/Ionomycin stimulation and GlcNAc/GlcNAc-diacetate concentrations.
# Relative L-PHA (%) in human T cells is plotted as a function of PMA/Ionomycin stimulation and GlcNAc/GlcNAc-monoacetate concentrations.
# human T cells [2] = experiment: CD25 and CD69 expression in human T cells stimulated with α-CD3; type: cell-based; conditions: FIG. 11
# Text: FIG. 12A is a graph that plots CD25 expression (%) in human T cells as a function of α-CD3 and GlcNAc/GlcNAc 6-acetate concentrations. FIG. 12B is a graph that plots CD69 expression (%) in human T cells as a function of α-CD3 and GlcNAc/GlcNAc 6-acetate concentrations.
# [3] = tested on: C57/BL6 mice immunized with MOG35-55 peptide; experiment: Oral treatment, N-glycan branching in mouse T cells in vivo; conditions: 1 mg/mL in drinking water, five days post immunization, CD4+ blasts
# Protocol: Ten-week old female C57/BL6 were immunized with 100 μg of MOG35-55 peptide in a 1:1 mixture with CFA. Groups were non-immunized (n=2), immunized and given drinking water alone (n=3), immunized and given GlcNAc at 1 mg/mL in drinking water (n=3), or immunized and given G-6-A at 1 mg/mL in drinking water (n=3). Splenocytes were harvested five days post immunization, and labeled for FACS analysis. For GlcNAc and G-6-A treated groups, each mouse drank an average of 3 mL per day. Data shown is gated on a blasting region on CD4^+ cells.
# mouse T cells = experiment: Mouse splenocyte cultures (L-PHA, CD69, CFSE proliferation); type: cell-based; conditions: splenocytes, anti-CD3 1 μg/mL; FIG. 15
# Protocol: FIG. 15A is a graph illustrating splenocytes from C57/BL6 female (n=6, 8-24 weeks old) or male (n=5, 10-13 weeks old) mice after culturing in the presence of anti-CD3 (1 μg/mL). Cells were collected on day 3, and labeled for FACS analysis. FIG. 15B is a series of graphs illustrating in vitro cultures of splenocytes either un-stimulated (resting) or anti-CD3 (1 μg/mL) activated. G-6-A (20 mM) and or GlcNAc (40 mM). Cells were harvested over a three-day time course, and labeled for FACS analysis. FIG. 15C is a graph illustrating in vitro stimulated splenocytes (anti-CD3 at 1 μg/mL) that were cultured for three-days and labeled for FACS analysis of the T cell activation marker CD69 at the time points indicated. […] Splenocytes were labeled with 1 uM of CFSE prior to in vitro anti-CD3 (1 μg/mL) activation for three-days. Overlaying histograms is on gated CD4+ cells.
# Cells were collected on day 3, and labeled for FACS analysis. Data shown is on gated CD4^+ cells, and percent changes of L-PHA MFI were normalized to a media only control.
# G-6-A (20 mM) and or GlcNAc (40 mM). Cells were harvested over a three-day time course, and labeled for FACS analysis. Data shown is on gated CD4^+ cells, and percent changes of L-PHA MFI were normalized to a media only control.
# Data shown is on gated CD4^+ cells. […]
# N-glycan branching = conditions: in vitro; cited from earlier work
# [4] = tested on: mice immunized with MOG 35-55 peptide; experiment: Oral GlcNAc in mice immunized with MOG 35-55 peptide, splenocytes re-stimulated in culture; type: in vivo, mouse
# Protocol: The data plotted in FIG. 6A was obtained from experiments in which splenocytes were isolated from mice and cultured in vitro with the indicated concentrations of GlcNAc under resting or activated (1000 ng/ml anti-CD3) conditions for 3 days, stained with L-PHA-FITC in triplicate, and analyzed by FACS. The data plotted in FIGS. 6B-6E were obtained from experiments in which mice were immunized with the indicated amounts of MOG 35-55 peptide emulsified in Complete Freund's adjuvant and treated with GlcNAc at the same time by supplementing their drinking water at 0.25 mg/ml GlcNAc and control mice that were immunized with the indicated amounts of MOG 35-55 peptide but not treated with GlcNAc. […] Although not wishing to be bound by any particular theory, the reduction in CD25^+T cell blasts at the highest antigen concentrations is consistent with the explanation that the reduction is secondary to the observed increase in cell death, consistent with antigen-induced cell death at high antigen stimulation levels.
# C57BL/6 mice = experiment: EAE in C57BL/6 mice, oral GlcNAc after disease onset; type: in vivo, mouse
# Protocol: FIG. 7A is a graph that plots mean clinical EAE score as a function of days after disease onset for control and treated groups of mice. […] Error bars in FIGS. 7A and 7D represent the means±S.E. of duplicate or greater values unless otherwise stated.
# The data plotted in FIG. 7A was obtained from experiments in which EAE was induced in C57BL/6 mice by immunization with MOG 35-55 peptide emulsified in Complete Freund's adjuvant and pertussis toxin. GlcNAc mice were treated orally with GlcNAc by supplementing the drinking water at 0.25 mg/ml starting on the second day after disease onset and continued for the duration of the study and control mice were given drinking water not supplemented with GlcNAc (n=9 per control group, n=7 per GlcNAc group). Day 1 indicates the first day of disease onset. Mice were examined daily for clinical signs of EAE over the next 30 days with the observer blinded to treatment conditions and scored daily as follows: 0, no disease; 1, loss of tail tone; 2, hindlimb weakness; 3, hindlimb paralysis; 4, forelimb weakness or paralysis and hindlimb paralysis; 5, moribund or dead. Mean clinical scores per group daily were compared by the Mann-Whitney U test. […] Error bars in FIGS. 7A and 7D represent the means±S.E. of duplicate or greater values unless otherwise stated.
# 2D2 TCR transgenic mice = experiment: EAE in 2D2 TCR transgenic mice, oral GlcNAc after disease onset; type: in vivo, mouse; conditions: oral 0.25 mg/ml after onset
# Text: Day 1 indicates the first day of disease onset. […] Mean clinical scores per group daily were compared by the Mann-Whitney U test.
# [5] = tested on: pediatric treatment-resistant inflammatory bowel disease patients; conditions: oral GlcNAc; remission for approximately 2 years; cited from earlier work
# animals = conditions: in vivo; cited from earlier work
# humans = conditions: supplement use for many years; cited from earlier work
# myelin-reactive T cells = conditions: T cells treated in vitro, transferred into naïve mice; cited from earlier work
# non-obese diabetic mice = conditions: oral, initiated prior to disease onset; cited from earlier work
# [6] = tested on: peripheral blood mononuclear cells; conditions: induced by MS-associated MGAT1 variant; cited from earlier work
# [7] = cited from earlier work
# [8] = oral, 0.25 mg/ml in drinking water, 14 days, vs control mice
structure (smiles),measurement,setting,value
"CC(=O)N[C@H]1C(O)O[C@H](COC(C)=O)[C@@H](OC(C)=O)[C@@H]1O (stereo partly shown) [N-acetylglucosamine 4,6 diacetate]",N-glycan branching (Relative L-PHA (%)),human T cells [1],GlcNAc increases N-glycan branching to greater effect than N-acetylglucosamine-diacetate compounds
"CC(=O)N[C@H]1C(O)O[C@H](COC(C)=O)[C@@H](O)[C@@H]1OC(C)=O (stereo partly shown) [N-acetylglucosamine 3,6 diacetate]",N-glycan branching (Relative L-PHA (%)),human T cells [1],GlcNAc increases N-glycan branching to greater effect than N-acetylglucosamine-diacetate compounds
CC(=O)N[C@H]1C(O)O[C@H](COC(C)=O)[C@@H](O)[C@@H]1O (stereo partly shown) [N-acetylglucosamine 6-acetate],N-glycan branching (Relative L-PHA (%)),human T cells [1],increases N-glycan branching to greater effect than GlcNAc or N-acetylglucosamine 3-acetate
same,CD25 expression (%),human T cells [2],inhibits CD25 and CD69 expression to greater effect than GlcNAc
same,CD69 expression (%),human T cells [2],inhibits CD25 and CD69 expression to greater effect than GlcNAc
same,N-glycan branching in mouse T cells in vivo,[3],increases N-glycan branching in mouse T cells in vivo
same,effectiveness in mouse T cells,mouse T cells,more effective than GlcNAc in mouse T cells
N[C@H]1C(O)O[C@H](CO)[C@@H](O)[C@@H]1O (stereo partly shown) [glucosamine],N-glycan branching with increasing concentration,N-glycan branching,initially increasing but subsequently decreasing N-glycan branching
"CC(=O)N[C@H]1C(O)O[C@H](CO)[C@@H](OC(C)=O)[C@@H]1OC(C)=O (stereo partly shown) [N-acetylglucosamine 3,4 diacetate]",N-glycan branching (Relative L-PHA (%)),human T cells [1],GlcNAc increases N-glycan branching to greater effect than N-acetylglucosamine-diacetate compounds
"CC(=O)N[C@@H](C=O)[C@@H](O)[C@H](O)[C@H](O)CO [GlcNAc, 2-(acetylamino)-2-deoxy-D-glucose]",N-glycan branching (Relative L-PHA (%)),human T cells [1],increases N-glycan branching to greater effect than N-acetylglucosamine-diacetate compounds; also recorded: N-acetylglucosamine 6-acetate increases N-glycan branching to greater effect than GlcNAc
same,CD25 expression (%),human T cells [2],N-acetylglucosamine 6-acetate inhibits CD25 and CD69 expression to greater effect than GlcNAc
same,CD69 expression (%),human T cells [2],N-acetylglucosamine 6-acetate inhibits CD25 and CD69 expression to greater effect than GlcNAc
same,"secretion of Th1 (IFN-γ, TNF-α) and Th17 (IL-17, IL-22) cytokines","[4]; oral treatment in vivo, re-stimulation with MOG 35-55 in vitro",inhibited secretion of Th1 cytokines (IFN-γ and TNF-α) and Th17 cytokines (IL-17 and IL-22)
same,CD4+CD25+FoxP3+ regulatory T cells,[4]; [8],promoted development of CD4^+CD25^+FoxP3^+ regulatory T cells
same,CD25+ T cells upon re-stimulation with MOG 35-55 peptide,[4]; [8],reduced CD25^+T cells
same,clinical course of EAE (mean clinical score),"C57BL/6 mice; C57BL/6 mice, oral 0.25 mg/ml in drinking water from second day after onset",attenuates the clinical course of experimental autoimmune encephalomyelitis (EAE)
same,"production of pro-inflammatory cytokines IFN-γ, TNF-α, IL-17, IL-22",C57BL/6 mice; re-stimulation with MOG 35-55 peptide in vitro,"inhibited production of pro-inflammatory cytokines IFN-γ, TNF-α, IL-17, and IL-22"
same,N-glycan branching in T cells (L-PHA staining),C57BL/6 mice; representative mice at peak of disease,increased N-glycan branching in T cells
same,CD25+ T cells,"C57BL/6 mice; representative mice at peak of disease, vs control mice",significant reduction in CD25^+T cells
same,"clinical course of EAE, moderate-severe disease",2D2 TCR transgenic mice; 2D2 TCR transgenic mice scored ≤4,attenuates the clinical course of EAE in moderate-severe disease
same,"clinical course of EAE, lethal disease",2D2 TCR transgenic mice; 2D2 TCR transgenic mice with scores of 5,not disease with rapid lethal progression
same,children in clinical remission,[5],8 of 12
same,toxicity in chronic animal studies,animals,no associated toxicity
same,adverse effects in humans,humans,without reported adverse effects
same,EAE after adoptive transfer of treated T cells,myelin-reactive T cells,inhibited EAE when these cells were adoptively transferred into naïve mice
same,spontaneous autoimmune diabetes,non-obese diabetic mice,suppress spontaneous autoimmune diabetes
same,N-glycan branching deficiency and T cell hyper-proliferation,[6],rescued N-glycan branching deficiency and T cell hyper-proliferation
same,N-glycan branching with increasing concentration,N-glycan branching,only enhance N-glycan branching
same,membrane permeability,[7],low membrane permeability (poor cell entry)
CC(=O)N[C@H]1C(O)O[C@H](CO)[C@@H](O)[C@@H]1OC(C)=O (stereo partly shown) [N-acetylglucosamine 3-acetate],N-glycan branching (Relative L-PHA (%)),human T cells [1],N-acetylglucosamine 6-acetate increases N-glycan branching to greater effect than GlcNAc or N-acetylglucosamine 3-acetate
"CC(=O)N[C@H]1C(OC(C)=O)O[C@H](COC(C)=O)[C@@H](OC(C)=O)[C@@H]1OC(C)=O (stereo partly shown) [GlcNAc-tetraacetate, N-acetylglucosamine tetraacetate]",membrane permeability,[7],increased membrane permeability as compared with GlcNAc
